Test results reported in patent publication US11976072B2, “Diacylglycerol kinase modulating compounds” (priority 2021, dated 2024).
Where two headings read alike, the source gives them in different places.

Assays:
human DGKα = human DGKα (Homo sapiens, UniProt P23743); assay: DGKα Biochemical Activity Assay (ADP-Glo); conditions: recombinant DGKα 1 nM, 100 μM ATP, 18:1 DAG/POPS/octylglucoside micelles, 1 hour at 25° C.; geometric mean; read-out: HTBS DGKa 1X ATP KM IC50;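 note: luminescent detection of ADP produced as DGKα phosphorylates DAG to phosphatidic acid, IC50 from four-parameter nonlinear curve fit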
[1] = tested on: Jurkat NFκB-luciferase cells; assay: Jurkat NFκB-Luciferase Assay; format: cell-based; conditions: Homo sapiens
Protocol: The day after, the excess antibody was washed out five times with 100 ul/well of assay medium (RPMI supplemented with 10% fetal bovine serum) using a Biotek EL406 instrument and leaving 20 ul of residual volume in each well. Jurkat NFκB-luciferase cells (Promega #) were harvested and diluted to 1 million cells/ml in assay medium. […] Thirty microliters of medium containing the Jurkat NFκB-luciferase cells were then dispensed using a Biotek MicroFlo instrument in each well of the compound-containing plate. […] Forty microliters of One-Glo Ex (Promega) was then added to the assay mixture and luciferase activity was read on a Envision plate reader 7 minutes later.

[2] = Jurkat NFκB-luciferase cells activated with anti-CD3 antibody (OKT3), 2.5 hrs at 37° C., geometric mean, read-out: DGK NFKb Luciferase EC50

Sequence of human DGKα (P23743 whole entry): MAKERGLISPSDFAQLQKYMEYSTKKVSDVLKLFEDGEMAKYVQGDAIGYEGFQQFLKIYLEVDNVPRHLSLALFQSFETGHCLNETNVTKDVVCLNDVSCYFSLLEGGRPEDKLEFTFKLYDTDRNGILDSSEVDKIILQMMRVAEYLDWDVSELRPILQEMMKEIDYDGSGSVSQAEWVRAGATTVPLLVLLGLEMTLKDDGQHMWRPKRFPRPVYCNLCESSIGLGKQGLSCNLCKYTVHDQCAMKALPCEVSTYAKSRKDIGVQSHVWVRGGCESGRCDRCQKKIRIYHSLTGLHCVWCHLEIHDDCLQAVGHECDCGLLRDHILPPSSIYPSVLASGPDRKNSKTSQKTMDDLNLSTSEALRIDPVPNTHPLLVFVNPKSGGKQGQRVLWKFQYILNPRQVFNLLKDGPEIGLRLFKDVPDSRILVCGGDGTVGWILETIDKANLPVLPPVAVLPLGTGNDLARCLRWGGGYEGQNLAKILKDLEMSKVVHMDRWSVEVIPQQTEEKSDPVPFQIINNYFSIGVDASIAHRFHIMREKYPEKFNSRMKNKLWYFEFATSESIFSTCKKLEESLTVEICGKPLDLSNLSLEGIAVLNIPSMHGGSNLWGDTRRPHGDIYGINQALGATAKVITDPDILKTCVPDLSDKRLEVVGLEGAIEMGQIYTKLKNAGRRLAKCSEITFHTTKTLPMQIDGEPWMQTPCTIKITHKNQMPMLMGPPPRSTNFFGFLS

Row | SMILES | IC50 (human DGKα) [nM] | EC50 [1, 2] [nM] | EC50 ([1]; Jurkat, […], read-out: DGK NFKb Luciferase EC50 (nM)) [nM]
1 | Cc1nnc2nc(N(CC(F)F)c3cc(F)cc(C#CC4(O)CCC4)c3)c3c(F)cccc3n12 [Example 21, 1-((3-((2,2-difluoroethyl)(6-fluoro-1-methyl-[1,2,4]triazolo[4,3-a]quinazolin-5-yl)amino)-5-fluorophenyl)ethynyl)cyclobutan-1-ol] | 21 | 9.42 | 
2 | Cc1nnc2nc(N(CC(F)F)c3cc(F)cc(C#CC4(C)COC4)c3)c3c(F)cccc3n12 [Example 22, N-(2,2-difluoroethyl)-6-fluoro-N-(3-fluoro-5-((3-methyloxetan-3-yl)ethynyl)phenyl)-1-methyl-[1,2,4]triazolo[4,3-a]quinazolin-5-amine] | 18.9 | 10.1 | 
3 | Cc1nnc2nc(N(CC(F)F)c3cc(F)cc(C#CC4COC4)c3)c3c(F)cccc3n12 [Example 23, N-(2,2-difluoroethyl)-6-fluoro-N-(3-fluoro-5-(oxetan-3-ylethynyl)phenyl)-1-methyl-[1,2,4]triazolo[4,3-a]quinazolin-5-amine] | 33.9 | 3.46 | 
4 | Cc1nnc2nc(N(CC(F)F)c3cc(F)cc(C#CC4(C)COC4)c3)c3cc(F)ccc3n12 [Example 24, N-(2,2-difluoroethyl)-7-fluoro-N-(3-fluoro-5-((3-methyloxetan-3-yl)ethynyl)phenyl)-1-methyl-[1,2,4]triazolo[4,3-a]quinazolin-5-amine] | 15.1 | 4.7 | 
5 | Cc1nnc2nc(N(CC(F)F)c3cc(F)cc(C#CC4(C(F)F)CC4)c3)c3c(F)cccc3n12 [Example 25, N-(2,2-difluoroethyl)-N-(3-((1-(difluoromethyl)cyclopropyl)ethynyl)-5-fluorophenyl)-6-fluoro-1-methyl-[1,2,4]triazolo[4,3-a]quinazolin-5-amine] | 30.2 | 7.37 | 
6 | Cc1nnc2nc(N3CCCc4c(C#CC5CCOCC5)cccc43)c3c(F)cccc3n12 [Example 26, 6-fluoro-1-methyl-5-(5-((tetrahydro-2H-pyran-4-yl)ethynyl)-3,4-dihydroquinolin-1(2H)-yl)-[1,2,4]triazolo[4,3-a]quinazoline] | 22.5 | 2.46 | 
7 | Cc1nnc2nc(N3CCCc4c(C#CC5(C)COC5)cccc43)c3c(F)cccc3n12 [Example 27, 6-fluoro-1-methyl-5-(5-((3-methyloxetan-3-yl)ethynyl)-3,4-dihydroquinolin-1(2H)-yl)-[1,2,4]triazolo[4,3-a]quinazoline] | 15.1 | 3.52 | 
8 | Cc1nnc2nc(N3CCCc4c(C#CC5(O)CCC5)cccc43)c3cc(F)ccc3n12 [Example 28, 1-((1-(7-fluoro-1-methyl-[1,2,4]triazolo[4,3-a]quinazolin-5-yl)-1,2,3,4-tetrahydroquinolin-5-yl)ethynyl)cyclobutan-1-ol] | 9.49 | 5.09 | 
9 | Cc1nnc2nc(N3CCCc4c(C#CC5(C)COC5)cccc43)c3cc(F)ccc3n12 [Example 29, 7-fluoro-1-methyl-5-(5-((3-methyloxetan-3-yl)ethynyl)-3,4-dihydroquinolin-1(2H)-yl)-[1,2,4]triazolo[4,3-a]quinazoline] | 3.31 | 0.66 | 
10 | CC(C)(O)C#Cc1cccc2c1COCCN2c1nc2nncn2c2c(Cl)ccc(F)c12 [Example 40, 4-[1-(9-chloro-6-fluoro-[1,2,4]triazolo[4,3-a]quinazolin-5-yl)-3,5-dihydro-2H-4,1-benzoxazepin-6-yl]-2-methyl-but-3-yn-2-ol] | 12.6 |  | 17.1

The next lines start with results.

Row | IC50 (human DGKα) [nM] | EC50 [1, 2] [nM] | SMILES | EC50 ([1]; Jurkat, […], read-out: DGK NFKb Luciferase EC50 (nM)) [nM]
11 | 14.7 | 0.163 | Cc1nnc2nc(N3CCCc4c(C#CC5CCC5)cccc43)c3cc(F)ccc3n12 [Example 30, 5-(5-(cyclobutylethynyl)-3,4-dihydroquinolin-1(2H)-yl)-7-fluoro-1-methyl-[1,2,4]triazolo[4,3-a]quinazoline] | 
12 | 50.9 | 1.43 | Cc1nnc2nc(N3CCCc4c(C#CC5(C(C)(F)F)CC5)cccc43)c3cc(F)ccc3n12 [Example 31, 5-(5-((1-(1,1-difluoroethyl)cyclopropyl)ethynyl)-3,4-dihydroquinolin-1(2H)-yl)-7-fluoro-1-methyl-[1,2,4]triazolo[4,3-a]quinazoline] | 
13 | 11 | 0.461 | Cc1nnc2nc(N3CCCc4c(C#CC5CC(F)(F)C5)cccc43)c3cc(F)ccc3n12 [Example 32, 5-(5-((3,3-difluorocyclobutyl)ethynyl)-3,4-dihydroquinolin-1(2H)-yl)-7-fluoro-1-methyl-[1,2,4]triazolo[4,3-a]quinazoline] | 
14 | 42.4 | 1.59 | Cc1nnc2nc(N3CCCc4c(C#CC5(C)CC5)cccc43)c3c(Cl)c(F)ccc3n12 [Example 33, 6-chloro-7-fluoro-1-methyl-5-[5-[2-(1-methylcyclopropyl)ethynyl]-3,4-dihydro-2H-quinolin-1-yl]-[1,2,4]triazolo[4,3-a]quinazoline] | 
15 | 30.4 | 0.907 | Cc1nnc2nc(N3CCCc4c(C#CC(C)(C)C(F)F)cccc43)c3c(Cl)c(F)ccc3n12 [Example 34, 6-chloro-5-[5-(4,4-difluoro-3,3-dimethyl-but-1-ynyl)-3,4-dihydro-2H-quinolin-1-yl]-7-fluoro-1-methyl-[1,2,4]triazolo[4,3-a]quinazoline] | 
16 | 5.44 | 1.14 | Cc1nnc2nc(N3CCCc4c(C#CC5(C(F)F)CC5)cccc43)c3c(Cl)c(F)ccc3n12 [Example 35, 6-chloro-5-[5-[2-[1-(difluoromethyl)cyclopropyl]ethynyl]-3,4-dihydro-2H-quinolin-1-yl]-7-fluoro-1-methyl-[1,2,4]triazolo[4,3-a]quinazoline] | 
17 | 9.93 | 1.85 | Cc1nnc2nc(N3CCCc4c(C#CC(C)(C)C#N)cccc43)c3c(Cl)c(F)ccc3n12 [Example 36, 4-[1-(6-chloro-7-fluoro-1-methyl-[1,2,4]triazolo[4,3-a]quinazolin-5-yl)-3,4-dihydro-2H-quinolin-5-yl]-2,2-dimethyl-but-3-ynenitrile] | 
18 | 64.8 | 1.88 | Cc1nnc2nc(N3CCCc4c(C#CC5(C(F)(F)F)CC5)cccc43)c3c(Cl)c(F)ccc3n12 [Example 37, 6-chloro-7-fluoro-1-methyl-5-[5-[2-[1-(trifluoromethyl)cyclopropyl]ethynyl]-3,4-dihydro-2H-quinolin-1-yl]-[1,2,4]triazolo[4,3-a]quinazoline] | 
19 | 126 | 3.95 | Fc1cc(Cl)c2c(c1)c(N1CCCc3c(C#CC4(C(F)(F)F)CC4)cccc31)nc1nncn12 [Example 38, 9-chloro-7-fluoro-5-[5-[2-[1-(trifluoromethyl)cyclopropyl]ethynyl]-3,4-dihydro-2H-quinolin-1-yl]-[1,2,4]triazolo[4,3-a]quinazoline] | 
20 | 8.31 | 2.18 | Fc1ccc(Cl)c2c1c(N1CCOCc3c(C#CC4(C(F)F)CC4)cccc31)nc1nncn12 [Example 39, 1-(9-chloro-6-fluoro-[1,2,4]triazolo[4,3-a]quinazolin-5-yl)-6-[2-[1-(difluoromethyl)cyclopropyl]ethynyl]-3,5-dihydro-2H-4,1-benzoxazepine] | 
21 | 11 | 1.39 | CC(C)(C#Cc1cccc2c1COCCN2c1nc2nncn2c2c(Cl)ccc(F)c12)C(F)F [Example 41, 1-(9-chloro-6-fluoro-[1,2,4]triazolo[4,3-a]quinazolin-5-yl)-6-(4,4-difluoro-3,3-dimethyl-but-1-ynyl)-3,5-dihydro-2H-4,1-benzoxazepine] | 
